Laboratory results taken from US20260283924A1, “TOPICAL COMPOSITIONS FOR PROMOTING HAIR GROWTH” (ESTETRA SRL, priority 2023, published 2026).

System: occipital hair follicles (healthy donor)
Experiment: Healthy donor hair follicle organ culture (ex vivo model), Example 8
Assay type: cell-based, human
Conditions: 300 nM
Description: In brief, 24 full-length occipital hair follicles (HF) were obtained from one healthy donor. […] Test substance (either vehicle (0.03% EtOH), E2 at concentration of 300 nM or E4 at concentrations of 3 μM or 300 nM) was added to the medium at the end of the 24 h. Total culturing time was 5 days depending on the stage of the HFs in the vehicle group. The experimental design is depicted in FIG. 23.

C[C@]12CC[C@@H]3c4ccc(O)cc4CC[C@H]3[C@@H]1CC[C@@H]2O [Formulation E2, 17beta-estradiol]
K15 expression in the suprabulbar outer root sheath: tendentially increased | area of the dermal papilla: no effect | density of cells in the dermal cup of anagen HFs: no effect | density of cells in the dermal papilla: no effect | density of cells in the dermal papilla stalk: no effect | hair matrix keratinocyte proliferation: tendentially increased | hair shaft production (reduction vs vehicle): significantly reduced | microscopic hair cycle: did not affect the hair cycle | number of CD34+ cells in the suprabulbar outer root sheath: no effect | number of cells (K15) in the suprabulbar outer root sheath: tendentially increased | total number of cells in the dermal cup of anagen HFs: no effect | total number of cells in the dermal papilla: no effect | total number of cells in the dermal papilla stalk: no effect | K15 expression in the suprabulbar outer root sheath (listed as Estradiol): tendentially increase K15 expression | area of the dermal papilla (listed as Estradiol): does not display a significant effect | density of cells in the dermal cup of anagen HFs (listed as Estradiol): does not display a significant effect | density of cells in the dermal papilla (listed as Estradiol): does not display a significant effect | density of cells in the dermal papilla stalk (listed as Estradiol): does not display a significant effect | hair matrix keratinocyte proliferation (listed as Estradiol): increased | hair shaft production (reduction vs vehicle) (listed as Estradiol): Reduction of hair shaft production | microscopic hair cycle (listed as Estradiol): does not affect hair cycle | number of CD34+ cells in the suprabulbar outer root sheath (listed as Estradiol): does not display any effect | number of cells (K15) in the suprabulbar outer root sheath (listed as Estradiol): tendentially increase | total number of cells in the dermal cup of anagen HFs (listed as Estradiol): does not display a significant effect | total number of cells in the dermal papilla (listed as Estradiol): does not display a significant effect | total number of cells in the dermal papilla stalk (listed as Estradiol): does not display a significant effect
